From patent US11618749B2, “Compounds and compositions for treating conditions associated with STING activity” (IFM Due, Inc., priority 2018, dated 2023)

Molecular target: T1, hSTING (Homo sapiens, UniProt Q86WV6, G230A/H232R/R293Q/R71H)
T1 construct: host or cells: THP1-Dual KO-IFNAR2 cells
Assay: STING reporter assay (luciferase reporter) in THP1-Dual KO-IFNAR2 cells activated with 2′3′cGAMP
Format: cell-based
Conditions: 15 μM 2′3′cGAMP, 24 h, luciferase reporter activity
Protocol: STING pathway activation by the compounds described herein is measured using THP1-Dual™ cells (KO-IFNAR2).
THP1-Dual™ KO-IFNAR2 Cells (obtained from invivogen) are maintained in RPMI, 10% FCS, 5 ml P/S, 2 mM L-glut, 10 mM Hepes, and 1 mM sodium pyruvate. Compounds are spotted in empty 384 well tissue culture plates (Greiner 781182) by Echo for a final concentration of […]. Cells are plated into the TC plates at 40 μL per well, 2×10E6 cells/mL. For activation with STING ligand, 2′3′cGAMP (MW 718.38, obtained from Invivogen), is prepared in Optimem media.
The following solutions are prepared for each 1×384 plate: • Solution A: 2 mL Optimem with one of the following stimuli: • 60 uL of 10 mM 2′3′cGAMP→150 μM stock • Solution B: 2 mL Optimem with 60 μL Lipofectamine 2000→Incubate 5 min at RT
2 mL of solution A and 2 ml Solution B is mixed and incubated for 20 min at room temperature (RT). 20 uL of transfection solution (A+B) is added on top of the plated cells, with a final 2′3′cGAMP concentration of 15 μM. The plates are then centrifuged immediately at 340 g for 1 minute, after which they are incubated at 37° C., 5% CO2, >98% humidity for 24 h. Luciferase reporter activity is then measured. EC50 values were calculated by using standard methods known in the art.
Luciferase Reporter Assay:
10 μL of supernatant from the assay is transferred to white 384-plate with flat bottom and squared wells. one pouch of QUANTI-Luc™ Plus is dissolved in 25 mL of water. 100 μL of QLC Stabilizer per 25 mL of QUANTI-Luc™ Plus solution was added. 50 μL of QUANTI-Luc™ Plus/QLC solution per well is then added. Luminescence is measured on a Platereader (e.g., Spectramax I3X (Molecular Devices GF3637001)).
Luciferase reporter activity is then measured. EC50 values are calculated by using standard methods known in the art.

T1 sequence (Q86WV6 whole entry R71H/G230A/H232R/R293Q): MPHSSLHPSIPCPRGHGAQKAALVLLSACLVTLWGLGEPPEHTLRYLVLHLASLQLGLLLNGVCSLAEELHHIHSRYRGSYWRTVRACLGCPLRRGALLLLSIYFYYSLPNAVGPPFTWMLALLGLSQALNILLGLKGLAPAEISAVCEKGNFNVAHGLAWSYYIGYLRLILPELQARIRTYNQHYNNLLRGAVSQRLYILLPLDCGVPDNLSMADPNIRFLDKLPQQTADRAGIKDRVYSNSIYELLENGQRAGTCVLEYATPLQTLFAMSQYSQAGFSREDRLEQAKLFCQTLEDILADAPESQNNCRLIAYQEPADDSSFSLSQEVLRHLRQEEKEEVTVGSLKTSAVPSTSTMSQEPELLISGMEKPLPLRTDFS

SMILES	EC50 [µM]
CCCCC1CCC(NC(=O)Nc2c[nH]c3ncc(F)cc23)CC1 (stereo not drawn) [Compound 273]	0.2 to 1
O=C(Nc1c[nH]c2cccnc12)NC1CCC(c2ccccc2)CC1 (stereo not drawn) [Compound 325]	5 to 100
O=C(Nc1c[nH]c2cccnc12)NC1CCC2(CCC2)CC1 [Compound 142]	1 to 5
O=C(Nc1ccc(C(F)(F)F)nc1)Nc1c[nH]c2ncccc12 [Compound 257]	5 to 100
CCCCC1CCCN(C(=O)Nc2c[nH]c3ncccc23)C1 (stereo not drawn) [Compound 167]	5 to 100
O=C(Nc1c[nH]c2ncccc12)N1CC(c2ccccc2)C1 [Compound 289]	5 to 100
CCCCC1CCC(NC(=O)Nc2c[nH]c3ncccc23)CC1 (stereo not drawn) [Compound 170]	0.2 to 1
O=C(Nc1ccc2c(c1)CCCC2)Nc1c[nH]c2ncc(F)cc12 [Compound 296]	0.04 to 0.2
O=C(Nc1c[nH]c2cnccc12)NC1CCC(c2ccccc2)CC1 (stereo not drawn) [Compound 137]	1 to 5
O=C(Nc1cccc(C2CCCCC2)n1)Nc1c[nH]c2ncc(F)cc12 [Compound 260]	1 to 5
Cc1nc2cc(NC(=O)Nc3c[nH]c4ncc(F)cc34)ccc2s1 [Compound 286]	1 to 5
CCCCC1CCN(C(=O)Nc2c[nH]c3ncccc23)CC1 [Compound 132]	1 to 5
CN(C(=O)Nc1c[nH]c2ncc(F)cc12)c1ccc(C(F)(F)F)cc1 [Compound 172]	5 to 100
O=C(Nc1ccc(C(F)(F)F)nc1)Nc1c[nH]c2ccncc12 [Compound 318]	5 to 100
CN1CC=C(c2cnc3[nH]cc(NC(=O)Nc4ccc(C(F)(F)F)cc4)c3c2)CC1 [Compound 213]	5 to 100
O=C(Nc1ccc(C2CCCCC2)cn1)Nc1c[nH]c2cnccc12 [Compound 313]	1 to 5
C#Cc1ccc2[nH]cc(NC(=O)Nc3ccc(C(F)(F)F)cc3)c2n1 [Compound 324, 1-(5-ethynyl-1H-pyrrolo[3,2-b]pyridin-3-yl)-3-(4-(trifluoromethyl)phenyl)urea]	5 to 100
CC(C)n1cc(-c2cnc3[nH]cc(NC(=O)Nc4ccc(C(F)(F)F)cc4)c3c2)cn1 [Compound 193]	0.2 to 1
O=C(Nc1ccc(C2CCCCC2)cn1)Nc1c[nH]c2ccncc12 [Compound 316]	0.2 to 1
O=C(Nc1nc2ccccc2s1)Nc1c[nH]c2ncc(F)cc12 [Compound 292]	0.2 to 1
C#Cc1ccc(NC(=O)Nc2c[nH]c3ncc(F)cc23)cc1 [Compound 291]	0.04 to 0.2
CCc1ccc(NC(=O)Nc2c[nH]c3ncccc23)nc1 [Compound 169]	5 to 100

SMILES	EC50 [µM]
O=C(Nc1ccc(C(F)(F)F)nc1)Nc1c[nH]c2cccnc12 [Compound 156]	5 to 100
CC(C)(O)c1ccc(-c2cnc3[nH]cc(NC(=O)Nc4ccc(C(F)(F)F)cc4)c3c2)cc1 [Compound 209]	1 to 5
O=C(Nc1ccc(C(F)(F)F)cc1)Nc1c[nH]c2ncc(-c3ccccc3)cc12 [Compound 143, 1-(5-phenyl-1H-pyrrolo[2,3-b]pyridin-3-yl)-3-(4-(trifluoromethyl)phenyl)urea]	1 to 5
O=C(Nc1cccc(C(F)(F)F)c1)Nc1c[nH]c2ccncc12 [Compound 148]	1 to 5
O=C(Nc1c[nH]c2ncccc12)NC1CCCc2ccccc21 (stereo not drawn) [Compound 135]	5 to 100
O=C(Nc1ccc(C(F)(F)F)cc1)Nc1c[nH]c2ncc(-c3cccnc3)cc12 [Compound 210]	1 to 5
O=C(Nc1c[nH]c2ccncc12)NC1CCC(c2ccccc2)CC1 (stereo not drawn) [Compound 321]	5 to 100
O=C(Nc1c[nH]c2cccnc12)NC1CCC(C(F)(F)F)CC1 (stereo not drawn) [Compound 141]	5 to 100
O=C(Nc1ccc(C2CCCCC2)cn1)Nc1c[nH]c2ncc(F)cc12 [Compound 261]	0.04 to 0.2
O=C(Nc1cnc(-c2ccccc2)s1)Nc1c[nH]c2ncc(F)cc12 [Compound 295]	0.2 to 1
O=C(Nc1c[nH]c2cccnc12)N1CCC2(CCCC2)CC1 [Compound 159, N-(1H-pyrrolo[3,2-b]pyridin-3-yl)-8-azaspiro[4.5]decane-8-carboxamide]	5 to 100
O=C(Nc1cccc(C(F)(F)F)c1)Nc1c[nH]c2ncccc12 [Compound 150]	1 to 5
O=C(Nc1ccc(C(F)(F)F)cc1)Nc1c[nH]c2cncc(F)c12 [Compound 164]	5 to 100
O=C(Nc1ccc(C(F)(F)F)cc1)Nc1c[nH]c2ncc(Br)cc12 [Compound 147]	0.04 to 0.2
O=C(Nc1ccc(C2CCCCC2)nc1)Nc1c[nH]c2cccnc12 [Compound 331]	1 to 5
Nc1cnc2[nH]cc(NC(=O)N3CC(c4ccccc4)C3)c2c1 [Compound 249]	5 to 100
O=C(Nc1ccc(C(F)(F)F)cn1)Nc1c[nH]c2ncccc12 [Compound 265]	0.2 to 1
CCCCc1ccc(NC(=O)Nc2c[nH]c3ncc(F)cc23)nc1 [Compound 259]	0.2 to 1
CN1CCN(c2ccc(-c3cnc4[nH]cc(NC(=O)Nc5ccc(C(F)(F)F)cc5)c4c3)cc2)CC1 [Compound 197]	1 to 5
CCc1cnc2[nH]cc(NC(=O)Nc3ccc(C(F)(F)F)cc3)c2c1 [Compound 268, 3-[5-ethyl-1H-pyrrolo[2,3-b]pyridin-3-yl]-1-[4-(trifluoromethyl)phenyl] urea]	0.2 to 1
O=C(Nc1ccc(C(F)(F)F)cc1)Nc1c[nH]c2nccc(-c3ccncc3)c12 [Compound 206]	5 to 100
CS(=O)(=O)c1ccc(-c2cnc3[nH]cc(NC(=O)Nc4ccc(C(F)(F)F)cc4)c3c2)cc1 [Compound 207]	5 to 100

SMILES	EC50 [µM]
O=C(Nc1cccc(C(F)(F)F)c1)Nc1c[nH]c2ncc(F)cc12 [Compound 297]	0.2 to 1
O=C(Nc1ccc(C(F)(F)F)cn1)Nc1c[nH]c2cccnc12 [Compound 152]	5 to 100
O=C(Nc1ccc2cnccc2c1)Nc1c[nH]c2ncc(F)cc12 [Compound 288]	5 to 100
O=C(Nc1c[nH]c2ncccc12)N1CCc2ccccc2C1 [Compound 306]	5 to 100
O=C(Nc1cccc2c1CCCC2)Nc1c[nH]c2ncc(F)cc12 [Compound 284]	1 to 5
O=C(Nc1ccc(C(F)(F)F)cc1)Nc1c[nH]c2ncc(F)cc12 [Compound 173, 1-(5-fluoro-1H-pyrrolo[2,3-b]pyridin-3-yl)-3-(4-(trifluoromethyl)phenyl)urea]	0.04 to 0.2
Cn1cc(-c2cnc3[nH]cc(NC(=O)Nc4ccc(C(F)(F)F)cc4)c3c2)c(C(F)(F)F)n1 [Compound 198]	1 to 5
CCCCc1ccc(NC(=O)Nc2c[nH]c3ncc(F)cc23)cc1 [Compound 275]	0.04 to 0.2
O=C(Nc1ccc(C(F)(F)F)cc1)Nc1c[nH]c2ncc(Cl)cc12 [Compound 283]	0.04 to 0.2
O=C(Nc1ccc(C(F)(F)F)c(Cl)c1)Nc1c[nH]c2ncc(F)cc12 [Compound 282]	0.2 to 1
C=Cc1cnc2[nH]cc(NC(=O)Nc3ccc(C(F)(F)F)cc3)c2c1 [Compound 276, 3-[5-ethenyl-1H-pyrrolo[2,3-b]pyridin-3-yl]-1-[4-(trifluoromethyl)phenyl] urea]	0.2 to 1
CCCCC1CCC(NC(=O)Nc2c[nH]c3ccncc23)CC1 (stereo not drawn) [Compound 317]	0.2 to 1
O=C(Nc1c[nH]c2ncc(F)cc12)NC1CCC(C(F)(F)F)CC1 (stereo not drawn) [Compound 270]	5 to 100
O=C(Nc1c[nH]c2ncccc12)NC1Cc2ccccc2C1 [Compound 302]	5 to 100
CN1CC=C(c2ccnc3[nH]cc(NC(=O)Nc4ccc(C(F)(F)F)cc4)c23)CC1 [Compound 195]	5 to 100
CCc1ccc(NC(=O)Nc2c[nH]c3ncc(F)cc23)cc1 [Compound 174]	0.04 to 0.2
O=C(Nc1ccc(C(F)(F)F)cc1)Nc1c[nH]c2cnccc12 [Compound 144]	1 to 5
O=C(Nc1cccc(C2CCCCC2)c1)Nc1c[nH]c2ncc(F)cc12 [Compound 271]	0.2 to 1
O=C(Nc1cccc(C2CCCCC2)c1)Nc1c[nH]c2cccnc12 [Compound 139]	0.2 to 1
O=C(Nc1c[nH]c2ncccc12)NC1CCC(c2ccccc2)CC1 (stereo not drawn) [Compound 166]	0.2 to 1
CC(C)(O)c1cccc(-c2ccnc3[nH]cc(NC(=O)Nc4ccc(C(F)(F)F)cc4)c23)c1 [Compound 205]	5 to 100
O=C(Nc1c[nH]c2ncc(-c3ccccc3)cc12)NC1CCC(C(F)(F)F)CC1 (stereo not drawn) [Compound 162, 3-[5-phenyl-1H-pyrrolo[2,3-b]pyridin-3-yl]-1l-[4-(trifluoromethyl)cyclohexyl]urea]	5 to 100
